Assays:
[1] = test system: methicillin-susceptible S. aureus (SA 29213); assay: Metabolic labelling (D-Ala-N3 / DBCO-AF488) fluorescence under penicillin G treatment; assay type: cell-based
[2] = test system: methicillin-resistant S. aureus (MRSA BAA39); assay: as above; assay type: cell-based
S. aureus 29213 = assay: Flow cytometry of metabolic labelling under penicillin G; assay type: cell-based; conditions: penicillin G 0-128 μg/mL, 3 h, vs untreated controls
MRSA BAA39 = assay: as above; assay type: cell-based, S. aureus; conditions: penicillin G up to 128 μg/mL, 3 h
SA 29213 [3] = assay: MILab-microarray assay; assay type: cell-based, S. aureus
MRSA BAA38 = assay: MILab-microarray assay; assay type: cell-based, S. aureus
SA 29213 [4] = assay: MILab-ELISA assay; assay type: cell-based, S. aureus; conditions: penicillin G 16 μg/mL
BAA39 [5] = assay: MILab-ELISA assay; assay type: cell-based, S. aureus; conditions: penicillin G 16 μg/mL
SA 29213 [6] = assay: MILab-LFA assay; assay type: cell-based, S. aureus
BAA39 [7] = assay: MILab-LFA assay; assay type: cell-based, S. aureus
[8] = test system: drug-susceptible (SA 29213) S. aureus; assay: MILab-based MiChip (SERS) assay; assay type: cell-based
[9] = test system: drug-resistant (BAA40) S. aureus; assay: MILab-based MiChip (SERS) assay; assay type: cell-based
[10] = penicillin G 16 μg/mL, 15 min to 4 hours
[11] = penicillin G 16 μg/mL, 1×10^4 CFU/mL

CC1(C)S[C@@H]2[C@H](NC(=O)Cc3ccccc3)C(=O)N2[C@H]1C(=O)[O-].[Na+] [penicillin G, Penicillin G sodium]
fluorescence intensity of metabolic labelling over incubation time ([1]; penicillin G 16 μg/mL, 0.5 to 5 h, susceptible SA 29213): kept constraint
metabolic labelling of single bacteria (confocal imaging) ([1]; penicillin G 16 μg/mL, susceptible strains): negligible labelling
fluorescence intensity of metabolic labelling at varying antibiotic concentration ([1]; penicillin G 2-128 μg/mL, susceptible bacteria): completely inhibit the metabolic labelling
fluorescence intensity of metabolic labelling over incubation time ([2]; penicillin G 16 μg/mL, 0.5 to 5 h, resistant MRSA BAA39): increased quickly with increasing incubation time
metabolic labelling of single bacteria (confocal imaging) ([2]; penicillin G 16 μg/mL, resistant strains): selective labelling
fluorescence intensity of metabolic labelling at varying antibiotic concentration ([2]; penicillin G 2-128 μg/mL, resistant bacteria): much stronger fluorescence intensity
labelling degree of individual bacteria (flow cytometry) (S. aureus 29213): considerably reduced labelling
labelling degree of individual bacteria (flow cytometry) (MRSA BAA39): maintained significant labelling
microarray fluorescence signal at increasing drug concentration (SA 29213 [3]; Penicillin G 0 to 32 μg/mL, 2 hours, vs untreated controls): considerably reduced signal
microarray fluorescence signal over drug treatment time (SA 29213 [3]; [10]): negligible signal even at 4 hours
microarray fluorescence signal at increasing drug concentration (MRSA BAA38; Penicillin G 0 to 32 μg/mL, 2 hours): maintained significant signal
microarray fluorescence signal over drug treatment time (MRSA BAA38; [10]): increased with increasing penicillin G treatment time
metabolism of bacteria (MILab-ELISA OD 650 nm) (SA 29213 [4]): completely inhibit the metabolism
metabolism of bacteria (MILab-ELISA OD 650 nm) (BAA39 [5]): high metabolic activity
MILab-LFA signal over drug treatment (incubation) time (SA 29213 [6]; penicillin G, up to 4 hours): no signal even after 4 hours
concentration that completely inhibits the bacteria (MILab-LFA test line) (SA 29213 [6]; susceptible bacteria SA 29213): 4 µg/mL
MILab-LFA signal over drug treatment (incubation) time (BAA39 [7]; penicillin G, up to 4 hours): showed signal after 30 min
concentration that completely inhibits the bacteria (MILab-LFA test line) (BAA39 [7]; resistant bacteria BAA39): 64 µg/mL
concentration at which weak Raman signals are generated ([8]; dose-dependence test, susceptible S. aureus): 8 µg/mL
Raman (SERS) signal over incubation time [8, 11]: negligible signals all the time
concentration at which weak Raman signals are generated ([9]; dose-dependence test, resistant S. aureus): 128 µg/mL
Raman (SERS) signal over incubation time [9, 11]: distinct Raman signal as short as 30 min
